Patent US7635708B2, “Methods and pharmaceutical compositions for inhibiting tumor cell growth” (Dana-Farber Cancer Institute, priority 1996, dated 2009)
Like-named read-outs stand apart in the source and are kept apart here.

Tests used:
NIH-vector cells [1] = experiment: BrdU incorporation, NIH-vector cells; type: cell-based
Text: (§1) […]. […] […].

HIB1B cells [2] = experiment: BrdU incorporation, HIB1B cells; type: cell-based, mice
Text: as §1

3T3-F442A preadipocytes = experiment: BrdU incorporation, 3T3-F442A preadipocytes; type: cell-based
Text: as §1

LS857 cells = experiment: Adipocyte differentiation of primary liposarcoma cells LS857; type: cell-based, human
Experimental: (§2) Primary liposarcoma cells were isolated from selected freshly harvested tumors as described previously (Fletcher, J. A. et al. (1991) NEJM 324:436-443) and references therein. Primary cells were plated at a density of at least 2×10^5 cells/ml and cultured in 60 mm dishes in RPMI containing 15% Cosmic Calf Serum (Hyclone) and 5 μ/ml insulin. […] The NIH-PPARγ and NIH-vector cells were derived by retroviral infection as described (Tontonoz, P. et al., (1994) supra). Differentiated cells were stained for neutral lipid with Oil Red-O (Green, H. and Kehinde, O. (1974) Cell 1:113-116). BrdU labeling was performed using the labeling kit (Boehringer Mannheim) according to the manufacturers instructions.
Liposarcomas have presumably acquired one or more genetic defects that interferes with the course of normal adipocyte development (Crozat, A. et al., (1993) Nature 363:640-644; Fletcher, J. A. et al., (1991) supra). […]
When cultured in the presence of fetal bovine serum and insulin, conditions permissive for adipocyte differentiation, all three cell lines maintain a fibroblastic morphology. […] This experiment was performed at least twice with each cell strain with quantitatively and qualitatively similar results. […]

LS175 cells = experiment: Adipocyte differentiation of primary liposarcoma cells LS175; type: cell-based, human; conditions: 10 μM, 7 days
[3] = system: primary liposarcoma cells; experiment: Adipocyte differentiation of primary cells isolated from three human liposarcomas (LS857, LS175, LS707); type: cell-based; conditions: 7 days (pioglitazone 10 μM)
Experimental: (§3) BrdU labeling was performed using the labeling kit (Boehringer Mannheim) according to the manufacturers instructions.
To address this possibility, primary cells isolated from three human liposarcomas were cultured in vitro (see Materials and Methods). Primary cell strains LS857 and LS175 were derived from well differentiated tumors and LS707 was derived from a myxoid tumor (see table 2). […] A primary leiomyosarcoma cell line LM203 was cultured as a control. To confirm that these cultures consisted of malignant tumor-derived cells, cytogenetic analysis was performed.

[4] = system: LM203 lieomyosarcoma cells; experiment: Lipid accumulation in primary leiomyosarcoma cell line LM203 (control); type: cell-based, human; conditions: which do not express PPARγ
NIH-PPARγ cells [5] = experiment: Adipocytic differentiation (percent lipid-containing cells) of NIH-PPARγ cells; type: cell-based
Experimental: as §3
(§4) Extent of adipocytic differentiation is indicated as the percentage of lipid-containing cells.

NIH-vector cells [6] = experiment: Adipocytic differentiation (percent lipid-containing cells) of NIH-vector cells; type: cell-based; conditions: for percent lipid-containing cells: NIH-vector, confluent cells, 7 days, 1 μM pioglitazone, 50 nM LG268
Experimental: as §2
We hypothesized that simultaneous exposure of competent cells to both PPARγ and R×R-specific ligands might provide a stronger adipogenic signal than a PPARγ ligand alone. The ability of the R×R-specific ligand LG268 to promote adipocyte differentiation was investigated using NIH-3T3 fibroblasts that express PPARγ from a retroviral vector (Tontonoz, P. et al. (1994) supra). We have previously shown that wild-type NIH-3T3 cells express R×Rα but not PPARγ. […] Similar results were obtained with the preadipocyte cell lines 3T3-L1 and 3T3-F442A which express both PPARγ and R×Rα (data not shown).
as §4

aP2 and adipsin = experiment: Northern analysis of adipocyte-specific markers in LS857 liposarcoma cells; type: cell-based, human; conditions: Northern blotting
[7] = system: human liposarcoma cells (LS 857); experiment: BrdU labeling and lipid staining of LS857 liposarcoma cells after induced differentiation (growth arrest); type: cell-based
NIH-PPARγ cells [8] = system: NIH-PPARγ cells
Experimental: BrdU incorporation experiment was performed as described in the protocol provided by the supplier (Boehringer Mannheim Biochemical). Briefly, cells grown on coverslips were labeled with 10 μM BrdU for 1 hr. Samples were washed and fixed with ethanol-glycine buffer and incubated with anti-BrdU monoclonal antibody. After incubation with anti-mouse-Ig-alkaline phosphatase followed by the substrate reaction, bound anti-BrdU antibody was visualized by light microscopy.
Cells undergoing DNA synthesis during exposure to BrdU were determined by immunohistochemical staining and considered as BrdU positive. The data represents the average of two independent experiments in which approximately 400 cells were counted per sample.

HIB1B cells [9] = experiment: Adipose cell tumors from HIB1B cells implanted in nude mice; type: in vivo; conditions: for Tumor volume (mean (SD)): 0.2% mixture with powder food
Experimental: HIB1B cells (2×10^6 cells/animal) were injected subcutaneously to the upper back of twenty four male nude mice (7 weeks NCR […]). Thirteen days after injection, mice were treated with troglitazone (0.2% mixture with powder food). The development of tumor volume (measured in mm^3) was determined at days 14, 19 and 26 after troglitazone treatment compared to untreated controls. Each point represents the mean±[…] (SD) from 12 mice (except the last point, where n=11) treated or untreated with troglitazone for the indicated time intervals. To evaluate changes in tumor size, mean (SD) from 11-12 cases for each group of animal were examined to ensure an 85% chance of detecting a statistically significant difference (assuming a 2-sided sample t-test). […] Points A-C and D-F represent untreated and troglitazone-treated animals, respectively. Each point represents the mean±standard deviation from 12 mice (except the last point, where n=11). Statistically significant decreases in tumor volume were detected in implanted mice treated with troglitazone compared to untreated controls. […] The tumor volume was determined after 14, 19 and 26 days of treatment. Volumes are indicated with and without outlier points in each group of animals. A comparison of the tumor volume by two-sided 2-sample t-test after 26 days of treatment indicates p=0.0019 (without outlier); p=0.037 (with outlier). To evaluate the tumor increase over time, repeated measures analysis of variance were determined, p=0.0014 without outlier; p=0.044 with outlier.

NIH-PPARγ cells [10] = conditions: at the concentrations used (pioglitazone 5 μM, BRL49653 1 μM)
Experimental: 48 hr after transfection viral supernatants were collected and NIH3T3 cells were infected at 50% confluence with equal titers of recombinant virus. The supernatants were applied to the cells in DMEM containing 10% cosmic calf serum (Hyclone) and 4 μg/ml of polybrene. 24 hr after infection, cells were split and plated in DMEM containing 10% calf serum and 2 μg/ml puromycin to select infected cells. NIH-3T3 cell lines infected with empty vector or with viral expression vectors containing wild type or mutant forms of PPARγ cDNA as well as HIB1B and 3T3-F442A cell lines were cultured in DMEM containing 10% cosmic calf serum.
The same number of NIH-PPARγ, NIH-vector or HIB1B cells were cultured either in the presence (+) or absence (−) of PPARγ ligands. Cell numbers were determined at the indicated time points. The effect of ligands on cell growth is represented as percentage decrease in cell numbers in the treated plates relative to untreated control plates.

[11] = LS857, pioglitazone withdrawn 48 hours, then BrdU 48 hours

What does the source list for CCc1ccc(CCOc2ccc(CC3SC(=O)NC3=O)cc2)nc1 (stereo not shown) [pioglitazone, 5-[4-[2-(5-ethyl-2-pyridyl)-ethoxy]benzyl]-2,4-thiazolidinedione]?
change of BrdU incorporation rate (NIH-vector cells [1]; NIH-vector cells, 5 days of treatment): did not change; BrdU positive % (NIH-vector cells [1]; NIH-vector, 5 μM pioglitazone for 5 days, BrdU pulse 1 hour): 43%; BrdU positive % (HIB1B cells [2]; 5 μM pioglitazone for 5 days, BrdU pulse 1 hour): 11%; decrease of BrdU incorporation into newly synthesized DNA (HIB1B cells [2]; after 5 days of treatment): 85%; decrease in the BrdU incorporation rate (3T3-F442A preadipocytes; 3T3-F442A preadipocytes, after 5 days of treatment): 80%; BrdU positive % (3T3-F442A preadipocytes; 3T3-F442A, 5 μM pioglitazone for 5 days, BrdU pulse 1 hour): 14%; degree of morphologically recognizable differentiation (LS857 cells; LS 857 cells, 10 μM, 7 days): 40%; degree of morphologically recognizable differentiation (LS175 cells): 75%; induction of differentiation (lipid accumulation, adipocyte morphology) [3]: readily accumulated lipid and adopted a morphology characteristic of mature cultured adipocytes; lipid accumulation [4]: No lipid accumulation; percent lipid-containing cells (NIH-PPARγ cells [5]): 60-70%; percent lipid-containing cells (NIH-vector cells [6]): 0%; induction of the mRNAs encoding aP2 and adipsin (aP2 and adipsin): induction of two markers of terminal adipocyte differentiation; cells containing lipid that stain positive for BrdU ([7]; LS857, of those cells containing lipid): 2%; cells containing visible cytoplasmic lipid [7, 11]: 35%; cells stained positive for BrdU incorporation [7, 11]: 28%; BrdU positive % (NIH-PPARγ cells [8]): 9%

For Cc1c(C)c2c(c(C)c1O)CCC(C)(COc1ccc(CC3SC(=O)NC3=O)cc1)O2 (stereo not shown) [troglitazone, 5-[[4-[(3,4-dihydro-6-hydroxy-2,5,7,8-tetramethyl-2H-1-benzopyran-2-yl)methoxy]phenyl]methyl]-2,4-thiazolidinedione], which “induction of differentiation (lipid accumulation, adipocyte morphology)” value [3] is on record?
Its value is “Induction of differentiation was also observed”.

What about the “size of adipose tumors in nude mice compared to untreated controls” value (HIB1B cells [9]; 14, 19 and 26 days of treatment) of the same compound?
Its value is “effective in reducing the size of adipose tumors”.

And the “Tumor volume (mean (SD))” value (HIB1B cells [9]; 14 days of treatment, w outlier)?
Its value is 403(182) mm^3.

And the “Tumor volume (mean (SD))” value (HIB1B cells [9]; 14 days of treatment, w/o outlier)?
Its value is 361(110) mm^3.

What about the “Tumor volume (mean (SD))” value (HIB1B cells [9]; 19 days of treatment, w outlier) of the same compound?
Its value is 990(665) mm^3.

What about the “Tumor volume (mean (SD))” value (HIB1B cells [9]; 19 days of treatment, w/o outlier) of the same compound?
The value was 830(389) mm^3.

What about the “Tumor volume (mean (SD))” value (HIB1B cells [9]; 26 days of treatment, w outlier) of the same compound?
Its value is 2601(2270) mm^3.

And the “Tumor volume (mean (SD))” value (HIB1B cells [9]; 26 days of treatment, w/o outlier)?
Its value is 2032(1179) mm^3.

What does the source list for Cc1cc2c(cc1C1(c3ccc(C(=O)O)cn3)CC1)C(C)(C)CCC2(C)C [LG268]?
adipocyte differentiation of LS857 cells (LS857 cells; 50 nM LG268, 10 μM pioglitazone, alone or simultaneously): significant degree of adipocyte differentiation; percent lipid-containing cells (NIH-PPARγ cells [5]; NIH-PPARγ, confluent cells, 7 days, 1 μM pioglitazone, 50 nM LG268): 50-65%; stimulation of adipocyte differentiation (NIH-PPARγ cells [5]; confluent NIH-PPARγ cells, 7 days, 50 nM LG268, 1 μM pioglitazone): significant stimulation of adipocyte differentiation; adipogenic effect on NIH-vector cells (NIH-vector cells [6]; NIH-vector cells): no effect; percent lipid-containing cells (NIH-vector cells [6]): 0%

Which cytotoxic effects (NIH-PPARγ cells [10]) does the source give for CN(CCOc1ccc(CC2SC(=O)NC2=O)cc1)c1ccccn1 (stereo not shown) [BRL49653, rosiglitiazone] here?
The cytotoxic effects was “No obvious cytotoxic effects”.
